Data set [1] addresses T1, Solute carrier organic anion transporter family member 1A3 (Rattus norvegicus, UniProt P70502).
T1 sequence (P70502 whole entry): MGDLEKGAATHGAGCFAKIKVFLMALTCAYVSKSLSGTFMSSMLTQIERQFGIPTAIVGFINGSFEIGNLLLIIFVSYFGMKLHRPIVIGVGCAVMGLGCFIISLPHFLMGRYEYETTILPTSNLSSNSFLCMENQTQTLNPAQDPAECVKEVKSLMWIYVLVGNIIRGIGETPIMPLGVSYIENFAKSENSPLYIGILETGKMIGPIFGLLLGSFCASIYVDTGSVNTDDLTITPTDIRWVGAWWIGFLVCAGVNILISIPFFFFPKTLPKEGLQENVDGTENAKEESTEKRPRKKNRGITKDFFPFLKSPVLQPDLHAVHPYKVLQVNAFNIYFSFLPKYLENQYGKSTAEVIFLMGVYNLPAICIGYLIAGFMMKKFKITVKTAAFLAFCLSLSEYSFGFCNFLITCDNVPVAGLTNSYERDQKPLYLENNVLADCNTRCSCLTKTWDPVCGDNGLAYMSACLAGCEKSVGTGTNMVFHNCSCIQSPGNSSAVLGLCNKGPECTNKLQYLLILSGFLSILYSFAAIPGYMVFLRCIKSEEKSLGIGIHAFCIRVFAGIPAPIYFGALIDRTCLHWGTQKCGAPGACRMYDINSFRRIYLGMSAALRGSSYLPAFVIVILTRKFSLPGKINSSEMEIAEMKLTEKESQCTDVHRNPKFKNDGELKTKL
Briefly: TP_TRANSPORTER: inhibition of Taurocholate uptake (Taurocholate: 0.25 uM, OTA: 100 uM) in OAT-K1-expressing MDCK cells. Type of data set: functional, cell-based. Conditions: dog.

Data set [2] deals with T2, OAT-K1 (Solute carrier organic anion transporter family member 1A3) (Rattus norvegicus, UniProt P70502).
T2 sequence (P70502 whole entry): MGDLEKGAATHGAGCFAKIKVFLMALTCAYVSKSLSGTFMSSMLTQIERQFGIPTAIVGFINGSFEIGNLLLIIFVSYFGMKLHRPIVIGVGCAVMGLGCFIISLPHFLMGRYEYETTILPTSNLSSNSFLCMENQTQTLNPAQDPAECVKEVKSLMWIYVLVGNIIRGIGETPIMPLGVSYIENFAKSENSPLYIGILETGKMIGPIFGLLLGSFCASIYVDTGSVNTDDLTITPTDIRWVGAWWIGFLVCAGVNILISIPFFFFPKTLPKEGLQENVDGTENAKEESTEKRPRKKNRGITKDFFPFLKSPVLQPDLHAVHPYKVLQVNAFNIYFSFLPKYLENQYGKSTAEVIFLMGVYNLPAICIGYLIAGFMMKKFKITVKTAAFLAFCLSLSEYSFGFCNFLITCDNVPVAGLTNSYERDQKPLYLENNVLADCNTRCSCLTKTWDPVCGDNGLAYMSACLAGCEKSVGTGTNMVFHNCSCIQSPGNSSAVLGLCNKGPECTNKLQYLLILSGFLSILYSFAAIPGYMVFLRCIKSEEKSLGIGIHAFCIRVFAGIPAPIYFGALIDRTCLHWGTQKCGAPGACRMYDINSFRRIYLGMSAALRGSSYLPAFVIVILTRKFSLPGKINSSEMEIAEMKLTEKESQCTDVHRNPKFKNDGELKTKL
The experiment in a line: (§1) TP_TRANSPORTER: uptake in OAT-K1-expressing MDCK cells. The format is functional, cell-based. The following applies: dog.

For data set [3], the target named is T3, OAT-K2 (Solute carrier organic anion transporter family member 1A3) (Rattus norvegicus, UniProt P70502).
T3 sequence (P70502 whole entry): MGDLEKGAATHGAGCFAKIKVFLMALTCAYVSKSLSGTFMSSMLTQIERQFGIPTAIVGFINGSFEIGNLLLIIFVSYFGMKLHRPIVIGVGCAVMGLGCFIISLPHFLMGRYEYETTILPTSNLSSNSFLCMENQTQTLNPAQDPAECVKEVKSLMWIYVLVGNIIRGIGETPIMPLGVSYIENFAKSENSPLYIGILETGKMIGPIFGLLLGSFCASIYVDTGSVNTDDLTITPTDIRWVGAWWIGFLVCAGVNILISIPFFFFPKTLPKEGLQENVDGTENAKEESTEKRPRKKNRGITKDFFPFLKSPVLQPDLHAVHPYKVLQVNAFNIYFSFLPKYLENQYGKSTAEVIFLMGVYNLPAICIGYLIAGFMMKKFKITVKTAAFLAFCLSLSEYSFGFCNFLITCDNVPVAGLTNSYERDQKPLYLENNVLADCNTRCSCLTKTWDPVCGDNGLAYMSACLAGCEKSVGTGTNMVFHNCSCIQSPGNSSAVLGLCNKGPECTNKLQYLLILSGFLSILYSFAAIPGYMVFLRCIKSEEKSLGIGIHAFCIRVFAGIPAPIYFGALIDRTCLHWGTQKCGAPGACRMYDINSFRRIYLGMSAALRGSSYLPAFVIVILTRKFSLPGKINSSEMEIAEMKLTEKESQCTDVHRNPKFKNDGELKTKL
The experiment in a line: (§2) TP_TRANSPORTER: uptake in OAT-K2-expressing MDCK cells. The format is functional, cell-based. Conditions: dog.

Data set [4] deals with T1, Solute carrier organic anion transporter family member 1A3. The experiment in a line: TP_TRANSPORTER: inhibition of Taurocholate uptake (Taurocholate: 0.25 uM, DHEA-3-acetate: 100 uM) in OAT-K1-expressing MDCK cells. The format is functional, cell-based. The following applies: dog.
The target is the same in data set [5]. Briefly: TP_TRANSPORTER: inhibition of MTX uptake (MTX: 0.1 uM, T4: 50 uM) in OAT-K2-expressing MDCK cells. Type of data set: functional, cell-based. The following applies: dog.
Data set [6] has the same target. The experiment in a line: TP_TRANSPORTER: inhibition of MTX uptake (MTX: 0.1 uM, T3: 50 uM) in OAT-K2-expressing MDCK cells. The format is functional, cell-based. The following applies: dog.
Data set [7] deals with T4, Solute carrier organic anion transporter family member 1A4 (Rattus norvegicus, UniProt O35913).
T4 sequence (O35913 whole entry): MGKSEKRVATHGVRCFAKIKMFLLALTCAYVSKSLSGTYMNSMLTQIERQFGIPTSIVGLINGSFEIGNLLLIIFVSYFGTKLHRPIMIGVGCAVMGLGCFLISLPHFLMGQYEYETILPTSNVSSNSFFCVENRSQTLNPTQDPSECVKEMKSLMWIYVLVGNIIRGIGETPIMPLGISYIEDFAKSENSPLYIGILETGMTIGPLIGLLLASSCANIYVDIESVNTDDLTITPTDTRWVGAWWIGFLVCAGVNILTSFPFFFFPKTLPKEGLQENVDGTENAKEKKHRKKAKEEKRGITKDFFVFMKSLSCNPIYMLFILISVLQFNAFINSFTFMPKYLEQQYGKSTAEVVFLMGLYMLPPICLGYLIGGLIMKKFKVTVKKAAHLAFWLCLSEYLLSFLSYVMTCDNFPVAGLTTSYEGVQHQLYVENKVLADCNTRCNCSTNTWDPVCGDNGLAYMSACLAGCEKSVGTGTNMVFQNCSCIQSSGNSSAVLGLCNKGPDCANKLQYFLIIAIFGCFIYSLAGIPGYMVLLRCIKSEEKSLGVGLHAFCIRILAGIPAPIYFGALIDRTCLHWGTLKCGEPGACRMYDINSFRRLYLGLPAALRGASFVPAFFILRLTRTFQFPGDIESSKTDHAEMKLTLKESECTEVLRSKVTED
The experiment in a line: TP_TRANSPORTER: inhibition of Digoxin uptake in Xenopus laevis oocytes.

Data set [8] concerns the target T1, Solute carrier organic anion transporter family member 1A3. Briefly: TP_TRANSPORTER: inhibition of T3 uptake (T3: 0.43nM, MTX: 2500 uM) in OAT-K2-expressing MDCK cells. Type of data set: functional, cell-based. The following applies: dog.
The target is the same in data set [9]. The experiment in a line: TP_TRANSPORTER: inhibition of T3 uptake (T3: 0.43nM, MTX: 2500 uM) in OAT-K1-expressing MDCK cells. Type of data set: functional, cell-based. The following applies: dog.
The target is the same in data set [10]. Briefly: TP_TRANSPORTER: inhibition of Taurocholate uptake (Taurocholate: 0.25 uM, DHEAS: 100 uM) in OAT-K1-expressing MDCK cells. Type of data set: functional, cell-based. The following applies: dog.
For data set [11] the target is unchanged. Briefly: TP_TRANSPORTER: inhibition of Taurocholate uptake (Taurocholate: 0.25 uM, DHEA: 100 uM) in OAT-K1-expressing MDCK cells. The following applies: dog. Type of data set: functional, cell-based.
Substrate in data set [12]: N[C@@H](Cc1cc(I)c(Oc2cc(I)c(O)c(I)c2)c(I)c1)C(=O)O
Described as §1. The format is functional, cell-based.

Substrate in data set [13]: C[C@]12CC[C@@H]3c4ccc(O)cc4CC[C@H]3[C@@H]1CC[C@@H]2O[C@@H]1O[C@H](C(=O)O)[C@@H](O)[C@H](O)[C@H]1O
Described as §1. Type of data set: functional, cell-based.

Substrate in data set [14]: N[C@@H](Cc1cc(I)c(Oc2ccc(O)c(I)c2)c(I)c1)C(=O)O
The data set is described as §1. Type of data set: functional, cell-based.

Substrate in data set [15]: [H][C@@]12CC=C3C[C@@H](OS(=O)(=O)O)CC[C@]3(C)[C@@]1([H])CC[C@]1(C)C(=O)CC[C@@]21[H]
Described as §1. The format is functional, cell-based.

Substrate in data set [16]: N[C@@H](Cc1cc(I)c(Oc2cc(I)c(O)c(I)c2)c(I)c1)C(=O)O
The description is as §2. The format is functional, cell-based.

Substrate in data set [17]: C[C@]12CC[C@@H]3c4ccc(O)cc4CC[C@H]3[C@@H]1CC[C@@H]2O[C@@H]1O[C@H](C(=O)O)[C@@H](O)[C@H](O)[C@H]1O
Described as §2. Type of data set: functional, cell-based.

Substrate in data set [18]: N[C@@H](Cc1cc(I)c(Oc2ccc(O)c(I)c2)c(I)c1)C(=O)O
The description is as §2. Type of data set: functional, cell-based.

Substrate in data set [19]: [H][C@@]12CC=C3C[C@@H](OS(=O)(=O)O)CC[C@]3(C)[C@@]1([H])CC[C@]1(C)C(=O)CC[C@@]21[H]
The description is as §2. The format is functional, cell-based.

Substrate in data set [20]: CN(Cc1cnc2nc(N)nc(N)c2n1)c1ccc(C(=O)N[C@@H](CCC(=O)O)C(=O)O)cc1
Described as §2. Type of data set: functional, cell-based.

These results are taken from ChEMBL document CHEMBL2074119, “Multispecific substrate recognition of kidney-specific organic anion transporters OAT-K1 and OAT-K2” (J Pharmacol Exp Ther, 2001).

For `C[C@@H]1Cc2c(Cl)cc(C(=O)N[C@@H](Cc3ccccc3)C(=O)O)c(O)c2C(=O)O1` [3R14S-OCHRATOXIN A], in data set [1], the Activity entry was “inhibitor [(at a rough estimate) 55 % of control]”. Also, the results for the Km in data set [2] and in data set [3] were 5.6 µM and 16.6 µM, respectively.
As for `CC(=O)O[C@H]1CC[C@@]2(C)C(=CC[C@@H]3[C@@H]2CC[C@]2(C)C(=O)CC[C@@H]32)C1` [DEHYDROEPIANDROSTERONE ACETATE], in [4], the Activity entry was “inhibitor [(at a rough estimate) 30 % of control]”.
Take `N[C@@H](Cc1cc(I)c(Oc2cc(I)c(O)c(I)c2)c(I)c1)C(=O)O` [LEVOTHYROXINE]: in data set [5], the Activity entry was “inhibitor [(at a rough estimate) 60 % of control]”.
On to `N[C@@H](Cc1cc(I)c(Oc2ccc(O)c(I)c2)c(I)c1)C(=O)O` [LIOTHYRONINE], for which the Activity result in [6] is “inhibitor [(at a rough estimate) 60 % of control]”. In [7], this molecule showed a concentration for half-maximal inhibition (IC50) of 50.4 µM.
Regarding `CN(Cc1cnc2nc(N)nc(N)c2n1)c1ccc(C(=O)N[C@@H](CCC(=O)O)C(=O)O)cc1` [METHOTREXATE], the Activity entry in data set [8] and in data set [9] was “inhibitor [(at a rough estimate) 75 % of control]” each time.
Take `C[C@]12CC[C@H](OS(=O)(=O)O)CC1=CC[C@@H]1[C@@H]2CC[C@]2(C)C(=O)CC[C@@H]12` [PRASTERONE SULFURIC ACID]: the Activity result in [10] is “inhibitor [(at a rough estimate) 30 % of control]”.
With `C[C@]12CC[C@H](O)CC1=CC[C@@H]1[C@@H]2CC[C@]2(C)C(=O)CC[C@@H]12` [PRASTERONE], in data set [11], the Activity result was “inhibitor [(at a rough estimate) 30 % of control]”.
`Cc1cn([C@H]2C[C@H](N=[N+]=[N-])[C@@H](CO)O2)c(=O)[nH]c1=O` [ZIDOVUDINE]: the Michaelis-Menten constant (Km) is 64.3 µM in data set [2] and 76.3 µM in data set [3].

B1: Solute carrier organic anion transporter family member 1A3 (Rattus norvegicus) (protein)
chain: MGDLEKGAATHGAGCFAKIKVFLMALTCAYVSKSLSGTFMSSMLTQIERQFGIPTAIVGFINGSFEIGNLLLIIFVSYFGMKLHRPIVIGVGCAVMGLGCFIISLPHFLMGRYEYETTILPTSNLSSNSFLCMENQTQTLNPAQDPAECVKEVKSLMWIYVLVGNIIRGIGETPIMPLGVSYIENFAKSENSPLYIGILETGKMIGPIFGLLLGSFCASIYVDTGSVNTDDLTITPTDIRWVGAWWIGFLVCAGVNILISIPFFFFPKTLPKEGLQENVDGTENAKEESTEKRPRKKNRGITKDFFPFLKSPVLQPDLHAVHPYKVLQVNAFNIYFSFLPKYLENQYGKSTAEVIFLMGVYNLPAICIGYLIAGFMMKKFKITVKTAAFLAFCLSLSEYSFGFCNFLITCDNVPVAGLTNSYERDQKPLYLENNVLADCNTRCSCLTKTWDPVCGDNGLAYMSACLAGCEKSVGTGTNMVFHNCSCIQSPGNSSAVLGLCNKGPECTNKLQYLLILSGFLSILYSFAAIPGYMVFLRCIKSEEKSLGIGIHAFCIRVFAGIPAPIYFGALIDRTCLHWGTQKCGAPGACRMYDINSFRRIYLGMSAALRGSSYLPAFVIVILTRKFSLPGKINSSEMEIAEMKLTEKESQCTDVHRNPKFKNDGELKTKL
B1: the Km in data set [12] was 20.2 µM; in data set [13] it was 35.3 µM; in [14], 43.8 µM; in data set [15], 8.5 µM; in data set [16] it was 12 µM; in data set [17], 44.9 µM. Moreover, the values for the Km in [18], in data set [19] and in data set [20] were 24.8 µM, 7.6 µM and 1.8 µM, respectively.
